PubChem BioAssay AID330 (DTP/NCI, 2004)
Several values for one entry are separate records, joined by “and”; a condition that tells them apart may be missing. Equal entries are not always repeated. Toxic doses and inconclusive results are not listed. Peptide text beside a SMILES is read from it. * marks the point of attachment. Boc = CC(C)(C)OC(=O)*; NHNH2 = NN*

Tested on: P388 leukemia ip, CD2F1 mice, survival T/C
Assay: NCI In Vivo Anticancer Drug Screen. Data for tumor model P388 Leukemia (intraperitoneal) in CD2F1 (CDF1) mice
Details: endpoint: median survival time, higher = longer survival
How it was run: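 Mice carrying the transplanted tumor received test compound or vehicle. Survival was recorded in each group, and the value is the treated-group measurement divided by that of the vehicle-treated control group.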

[1] = dose: 50.0 mg/kg/injection, schedule: Q01DX009 (ip), vehicle: saline
[2] = dose: 100.0 mg/kg/injection, schedule: Q01DX009 (ip), vehicle: saline
[3] = dose: 200.0 mg/kg/injection, schedule: Q01DX009 (ip), vehicle: saline
[4] = dose: 50.0 mg/kg/injection, schedule: Q01DX005 (ip), vehicle: saline with Tween-80
[5] = dose: 100.0 mg/kg/injection, schedule: Q01DX005 (ip), vehicle: saline with Tween-80
[6] = dose: 200.0 mg/kg/injection, schedule: Q01DX005 (ip), vehicle: saline with Tween-80
[7] = dose: 50.0 mg/kg/injection, schedule: Q01DX009 (ip), vehicle: Klucel (hydroxypropylcellulose) (HPC)
[8] = dose: 100.0 mg/kg/injection, schedule: Q01DX009 (ip), vehicle: Klucel (hydroxypropylcellulose) (HPC)
[9] = dose: 200.0 mg/kg/injection, schedule: Q01DX009 (ip), vehicle: Klucel (hydroxypropylcellulose) (HPC)
[10] = dose: 50.0 mg/kg/injection, schedule: Q01DX009 (ip), vehicle: saline with Tween-80
[11] = dose: 100.0 mg/kg/injection, schedule: Q01DX009 (ip), vehicle: saline with Tween-80
[12] = dose: 200.0 mg/kg/injection, schedule: Q01DX009 (ip), vehicle: saline with Tween-80
[13] = dose: 100.0 mg/kg/injection, schedule: Q04DX002 (ip), vehicle: saline
[14] = dose: 200.0 mg/kg/injection, schedule: Q04DX002 (ip), vehicle: saline
[15] = dose: 25.0 mg/kg/injection, schedule: Q01DX005 (ip), vehicle: saline with Tween-80
[16] = dose: 25.0 mg/kg/injection, schedule: Q01DX009 (ip), vehicle: saline

Cc1cccc(Nc2cc(Cl)nc(SCC(=O)O)n2)c1C
T/C [1]: 100 % of control | T/C [2]: 98 % of control | T/C [3]: 100 % of control

CC(=O)NC1CCCCC1C1CCC([N+](=O)[O-])CC1 (configuration not stated)
T/C [4]: 101 % of control | T/C [5]: 99 % of control | T/C [6]: 99 % of control

COC1NC(=O)Oc2c(F)cccc21 (configuration not stated)
T/C (dose: 12.5 mg/kg/injection, schedule: Q01DX009 (ip), vehicle: Klucel (hydroxypropylcellulose) (HPC)): 100 % of control | T/C (dose: 25.0 mg/kg/injection, schedule: Q01DX009 (ip), vehicle: Klucel (hydroxypropylcellulose) (HPC)): 95 % of control | T/C [7]: 99 % of control | T/C [8]: 95 % of control | T/C [9]: 104 % of control

Cc1ncc(C(N)=S)c(N)n1
T/C [10]: 103 % of control | T/C [11]: 108 % of control | T/C [12]: 105 % of control

CC(=O)C1(C(C)=O)C2=C(C(=O)C(Cl)=C(Cl)C2=O)N2C=CC=CC21 (configuration not stated)
T/C [13]: 102 % of control | T/C [14]: 88 % of control

CC(C)(C)OC(=O)NC(Cc1ccccc1)C(=O)NC(CO)C(=O)NN (stereo not drawn) (Boc-Phe-Ser-NHNH2; configuration not given here)
T/C (dose: 50.0 mg/kg/injection, schedule: Q01DX005 (ip), vehicle: Klucel (hydroxypropylcellulose) (HPC)): 97 % of control | T/C (dose: 100.0 mg/kg/injection, schedule: Q01DX005 (ip), vehicle: Klucel (hydroxypropylcellulose) (HPC)): 95 % of control | T/C (dose: 200.0 mg/kg/injection, schedule: Q01DX005 (ip), vehicle: Klucel (hydroxypropylcellulose) (HPC)): 105 % of control

CC/C(=N/NS(=O)(=O)c1ccc(C)cc1)c1ccc([N+](=O)[O-])cc1
T/C [13]: 100 % of control | T/C [14]: 105 % of control | T/C (dose: 400.0 mg/kg/injection, schedule: Q04DX002 (ip), vehicle: saline): 100 % of control

Cc1ccc(S(=O)(=O)N2CC3CC(C2)C(=O)NC3=O)cc1
T/C [7]: 104 % of control | T/C [8]: 107 % of control | T/C [9]: 92 % of control

Cc1ccccc1N1CCOS(=O)OC(C)C1 (configuration not stated)
T/C [4]: 100 % of control | T/C [5]: 104 % of control | T/C [6]: 100 % of control

O=C(NC(=NC(=Nc1ccc(Cl)cc1)c1ccccc1)c1ccccc1)c1ccccc1
T/C [10]: 92 % of control | T/C [11]: 95 % of control | T/C [12]: 99 % of control

ClC1=C(Cl)C(=C2CCCC2)C(Cl)=C1Cl
T/C [7]: 100 % of control | T/C [8]: 100 % of control | T/C [9]: 87 % of control

CCCC1(CC(=O)OCC)SCCN1C(=O)OCC (configuration not stated)
T/C [15]: 102 % of control | T/C [4]: 102 % of control | T/C [5]: 102 % of control | T/C [6]: 102 % of control

CC(C)(C)C1=CC2(c3ccccn3)C(Cl)C(=O)N2NC(c2ccccn2)=N1 (configuration not stated)
T/C (dose: 25.0 mg/kg/injection, schedule: Q01DX009 (ip), vehicle: other): 98 % of control | T/C (dose: 50.0 mg/kg/injection, schedule: Q01DX009 (ip), vehicle: other): 101 % of control | T/C (dose: 100.0 mg/kg/injection, schedule: Q01DX009 (ip), vehicle: other): 98 % of control | T/C (dose: 200.0 mg/kg/injection, schedule: Q01DX009 (ip), vehicle: other): 93 % of control

O=C(O)c1cc([N+](=O)[O-])ccc1Nc1ccccc1
T/C (dose: 6.25 mg/kg/injection, schedule: Q01DX009 (ip), vehicle: suspension in saline): 108 % of control and 90 % of control | T/C (dose: 12.5 mg/kg/injection, schedule: Q01DX009 (ip), vehicle: suspension in saline): 104 % of control | T/C (dose: 25.0 mg/kg/injection, schedule: Q01DX009 (ip), vehicle: suspension in saline): 100 % of control and 90 % of control | T/C (dose: 50.0 mg/kg/injection, schedule: Q01DX009 (ip), vehicle: suspension in saline): 111 % of control and 91 % of control

C=CCN=C(N)S[As]1c2ccccc2Oc2ccccc21
T/C [1]: 100 % of control | T/C [2]: 98 % of control | T/C [3]: 102 % of control

CCN=c1cc2sc3cc(NCC)c(C)cc3nc-2cc1C
T/C (dose: 12.5 mg/kg/injection, schedule: Q01DX009 (ip), vehicle: saline): 97 % of control | T/C [16]: 99 % of control | T/C [1]: 101 % of control | T/C [2]: 90 % of control

COC1=CC(=O)C(C/C=C/c2ccccc2)=CC1=O
T/C (dose: 2.5 mg/kg/injection, schedule: Q01DX009 (ip), vehicle: saline with Tween-80): 103 % of control | T/C (dose: 5.0 mg/kg/injection, schedule: Q01DX009 (ip), vehicle: saline with Tween-80): 105 % of control | T/C (dose: 10.0 mg/kg/injection, schedule: Q01DX009 (ip), vehicle: saline with Tween-80): 105 % of control

O=C1OC(c2ccccc2)=N/C1=C\c1ccccc1
T/C (dose: 25.0 mg/kg/injection, schedule: Q01DX009 (ip), vehicle: saline with Tween-80): 95 % of control | T/C [10]: 100 % of control | T/C [11]: 100 % of control | T/C [12]: 95 % of control

CCCCC(CCCC)=NNC(=S)SC
T/C [10]: 100 % of control | T/C [11]: 100 % of control

C(=C1CC(=Cc2ccccc2)C1)c1ccccc1
T/C (dose: 100.0 mg/kg/injection, schedule: Q01DX001 (ip), vehicle: Klucel (hydroxypropylcellulose) (HPC)): 94 % of control | T/C (dose: 200.0 mg/kg/injection, schedule: Q01DX001 (ip), vehicle: Klucel (hydroxypropylcellulose) (HPC)): 88 % of control | T/C (dose: 400.0 mg/kg/injection, schedule: Q01DX001 (ip), vehicle: Klucel (hydroxypropylcellulose) (HPC)): 88 % of control

COc1ccc2c(c1OC)C(=C(Cl)Cl)N1CCc3cc4c(cc3C1=C2C=O)OCO4
T/C (dose: 12.5 mg/kg/injection, schedule: Q01DX005 (ip), vehicle: saline with Tween-80): 98 % of control | T/C [15]: 92 % of control | T/C [4]: 90 % of control and 96 % of control

CCC(C)([N+](=O)[O-])[N+](=O)[O-]
T/C (dose: 0.19 mg/kg/injection, schedule: Q01DX009 (ip), vehicle: Klucel (hydroxypropylcellulose) (HPC)): 102 % of control | T/C (dose: 0.39 mg/kg/injection, schedule: Q01DX009 (ip), vehicle: Klucel (hydroxypropylcellulose) (HPC)): 97 % of control | T/C (dose: 0.78 mg/kg/injection, schedule: Q01DX009 (ip), vehicle: Klucel (hydroxypropylcellulose) (HPC)): 99 % of control and 96 % of control

Cc1cc2cc3c(=O)n(C)c(=O)nc-3n(CC(O)C(O)C(O)CO)c2cc1C (configuration not stated)
T/C (dose: 15.0 mg/kg/injection, schedule: Q01DX009 (ip), vehicle: saline with Tween-80): 98 % of control | T/C (dose: 30.0 mg/kg/injection, schedule: Q01DX009 (ip), vehicle: saline with Tween-80): 98 % of control | T/C (dose: 60.0 mg/kg/injection, schedule: Q01DX009 (ip), vehicle: saline with Tween-80): 113 % of control

O=C1SCCC1n1c(=O)c1=O (configuration not stated)
T/C [15]: 100 % of control | T/C [4]: 98 % of control | T/C (dose: 60.0 mg/kg/injection, schedule: Q01DX005 (ip), vehicle: saline with Tween-80): 94 % of control | T/C [5]: 105 % of control | T/C (dose: 120.0 mg/kg/injection, schedule: Q01DX005 (ip), vehicle: saline with Tween-80): 99 % of control | T/C [6]: 96 % of control | T/C (dose: 240.0 mg/kg/injection, schedule: Q01DX005 (ip), vehicle: saline with Tween-80): 90 % of control | T/C (dose: 400.0 mg/kg/injection, schedule: Q01DX005 (ip), vehicle: saline with Tween-80): 99 % of control

O=C(O)C(O)C(Cl)(Cl)Cl (configuration not stated)
T/C [16]: 107 % of control | T/C [1]: 96 % of control | T/C [2]: 88 % of control | T/C [3]: 91 % of control

CCC1(O)CC2CN(CCc3c([nH]c4ccccc34)C(C(=O)OC)(c3cc4c(cc3OC)N(C)C3C(O)(C(=O)NCCO)C(O)C5(CC)C=CCN6CCC43C65)C2)C1 (configuration not stated)
T/C (dose: 0.13 mg/kg/injection, schedule: Q01DX009 (ip), vehicle: water): 105 % of control | T/C (dose: 0.2 mg/kg/injection, schedule: Q01DX009 (ip), vehicle: saline): 150 % of control | T/C (dose: 0.22 mg/kg/injection, schedule: Q01DX009 (ip), vehicle: water): 117 % of control | T/C (dose: 0.36 mg/kg/injection, schedule: Q01DX009 (ip), vehicle: water): 122 % of control | T/C (dose: 0.4 mg/kg/injection, schedule: Q01DX009 (ip), vehicle: saline): 167 % of control | T/C (dose: 0.6 mg/kg/injection, schedule: Q01DX009 (ip), vehicle: water): 153 % of control | T/C (dose: 0.63 mg/kg/injection, schedule: Q04DX003 (ip), vehicle: saline): 183 % of control | T/C (dose: 0.8 mg/kg/injection, schedule: Q01DX009 (ip), vehicle: saline): 96 % of control | T/C (dose: 1.0 mg/kg/injection, schedule: Q01DX009 (ip), vehicle: water): 104 % of control | T/C (dose: 1.25 mg/kg/injection, schedule: Q04DX003 (ip), vehicle: saline): 223 % of control | T/C (dose: 2.5 mg/kg/injection, schedule: Q04DX003 (ip), vehicle: saline): 274 % of control
